Test: (§1) The drug is tested on WLS-220 corresponding to human gut metagenome with ENA study accession number: PRJEB37062 and ENA sample accession number: ERS12561769 for biotransformation under anaerobic condition. The drug concentrations were measured over 9 timepoints collected between 0 and 24 hours of incubation by liquid-chromatography-coupled mass spectrometry (LC–MS)
Conditions: 2 µM
Also: call rule not given here.

| Bacterial Biotransformation | Compound |
| --- | --- |
| Compound metabolized | C#C[C@]1(O)CC[C@H]2[C@@H]3CCC4=Cc5oncc5C[C@]4(C)[C@H]3CC[C@@]21C [DANAZOL] |
| Compound NOT metabolized | CNC(=C[N+](=O)[O-])NCCSCc1csc(CN(C)C)n1 [NIZATIDINE] |

Test: as §1, with “WLS-052” for “WLS-220”, “ERS12561747” for “ERS12561769”
Conditions: 2 µM

| Bacterial Biotransformation | Compound |
| --- | --- |
| Compound metabolized | C#C[C@]1(O)CC[C@H]2[C@@H]3CCC4=Cc5oncc5C[C@]4(C)[C@H]3CC[C@@]21C [DANAZOL] |
| Compound NOT metabolized | CNC(=C[N+](=O)[O-])NCCSCc1csc(CN(C)C)n1 [NIZATIDINE] |

Conditions: human gut metagenome, 24 h, 2 µM

| Bacterial Biotransformation | Compound |
| --- | --- |
| Compound NOT metabolized | C#C[C@]1(O)CC[C@H]2[C@@H]3CCC4=Cc5oncc5C[C@]4(C)[C@H]3CC[C@@]21C [DANAZOL] |
| Compound metabolized | CNC(=C[N+](=O)[O-])NCCSCc1csc(CN(C)C)n1 [NIZATIDINE] |

Conditions: human gut metagenome, 24 h, 2 µM
Remark: another data set of the same source

| Bacterial Biotransformation | Compound |
| --- | --- |
| Compound NOT metabolized | CNC(=C[N+](=O)[O-])NCCSCc1csc(CN(C)C)n1 [NIZATIDINE] |

Conditions: human gut metagenome, 24 h, 2 µM
Remark: another data set of the same source

| Bacterial Biotransformation | Compound |
| --- | --- |
| Compound metabolized | CNC(=C[N+](=O)[O-])NCCSCc1csc(CN(C)C)n1 [NIZATIDINE] |

Conditions: human gut metagenome, 24 h, 2 µM
Remark: another data set of the same source

| Bacterial Biotransformation | Compound |
| --- | --- |
| Compound metabolized | C#C[C@]1(O)CC[C@H]2[C@@H]3CCC4=Cc5oncc5C[C@]4(C)[C@H]3CC[C@@]21C [DANAZOL] |
| Compound metabolized | CNC(=C[N+](=O)[O-])NCCSCc1csc(CN(C)C)n1 [NIZATIDINE] |

Conditions: human gut metagenome, 24 h, 2 µM
Remark: another data set of the same source

| Bacterial Biotransformation | Compound |
| --- | --- |
| Compound metabolized | C#C[C@]1(O)CC[C@H]2[C@@H]3CCC4=Cc5oncc5C[C@]4(C)[C@H]3CC[C@@]21C [DANAZOL] |
| Compound NOT metabolized | CNC(=C[N+](=O)[O-])NCCSCc1csc(CN(C)C)n1 [NIZATIDINE] |

Test: as §1, with “Z-006” for “WLS-220”, “mouse” for “human”, “ERS12561806” for “ERS12561769”
Conditions: 2 µM

| Bacterial Biotransformation | Compound |
| --- | --- |
| Compound metabolized | C#C[C@]1(O)CC[C@H]2[C@@H]3CCC4=Cc5oncc5C[C@]4(C)[C@H]3CC[C@@]21C [DANAZOL] |
| Compound NOT metabolized | CNC(=C[N+](=O)[O-])NCCSCc1csc(CN(C)C)n1 [NIZATIDINE] |

Conditions: human gut metagenome, 24 h, 2 µM
Remark: another data set of the same source

| Bacterial Biotransformation | Compound |
| --- | --- |
| Compound NOT metabolized | CNC(=C[N+](=O)[O-])NCCSCc1csc(CN(C)C)n1 [NIZATIDINE] |

Conditions: human gut metagenome, 24 h, 2 µM
Remark: another data set of the same source

| Bacterial Biotransformation | Compound |
| --- | --- |
| Compound metabolized | CNC(=C[N+](=O)[O-])NCCSCc1csc(CN(C)C)n1 [NIZATIDINE] |

Test: as §1, with “WLS-350” for “WLS-220”, “ERS12561789” for “ERS12561769”
Conditions: 2 µM

| Bacterial Biotransformation | Compound |
| --- | --- |
| Compound NOT metabolized | CNC(=C[N+](=O)[O-])NCCSCc1csc(CN(C)C)n1 [NIZATIDINE] |

Test: as §1, with “Z-005” for “WLS-220”, “to” for “to human gut”, “ERS12561805” for “ERS12561769”
Conditions: 2 µM

| Bacterial Biotransformation | Compound |
| --- | --- |
| Compound NOT metabolized | CNC(=C[N+](=O)[O-])NCCSCc1csc(CN(C)C)n1 [NIZATIDINE] |

Conditions: human gut metagenome, 24 h, 2 µM
Remark: another data set of the same source

| Bacterial Biotransformation | Compound |
| --- | --- |
| Compound NOT metabolized | CNC(=C[N+](=O)[O-])NCCSCc1csc(CN(C)C)n1 [NIZATIDINE] |

Conditions: human gut metagenome, 24 h, 2 µM
Remark: another data set of the same source

| Bacterial Biotransformation | Compound |
| --- | --- |
| Compound metabolized | C#C[C@]1(O)CC[C@H]2[C@@H]3CCC4=Cc5oncc5C[C@]4(C)[C@H]3CC[C@@]21C [DANAZOL] |
| Compound NOT metabolized | CNC(=C[N+](=O)[O-])NCCSCc1csc(CN(C)C)n1 [NIZATIDINE] |

Test: as §1, with “Z-022” for “WLS-220”, “mouse” for “human”, “ERS12561821” for “ERS12561769”
Conditions: 2 µM

| Bacterial Biotransformation | Compound |
| --- | --- |
| Compound metabolized | C#C[C@]1(O)CC[C@H]2[C@@H]3CCC4=Cc5oncc5C[C@]4(C)[C@H]3CC[C@@]21C [DANAZOL] |
| Compound metabolized | CNC(=C[N+](=O)[O-])NCCSCc1csc(CN(C)C)n1 [NIZATIDINE] |

Test: as §1, with “WLS-069” for “WLS-220”, “ERS12561748” for “ERS12561769”
Conditions: 2 µM

| Bacterial Biotransformation | Compound |
| --- | --- |
| Compound metabolized | C#C[C@]1(O)CC[C@H]2[C@@H]3CCC4=Cc5oncc5C[C@]4(C)[C@H]3CC[C@@]21C [DANAZOL] |
| Compound metabolized | CNC(=C[N+](=O)[O-])NCCSCc1csc(CN(C)C)n1 [NIZATIDINE] |

Test: as §1, with “Z-004” for “WLS-220”, “to” for “to human gut”, “ERS12561804” for “ERS12561769”
Conditions: 2 µM

| Bacterial Biotransformation | Compound |
| --- | --- |
| Compound NOT metabolized | CNC(=C[N+](=O)[O-])NCCSCc1csc(CN(C)C)n1 [NIZATIDINE] |

Conditions: human gut metagenome, 24 h, 2 µM
Remark: another data set of the same source

| Bacterial Biotransformation | Compound |
| --- | --- |
| Compound metabolized | C#C[C@]1(O)CC[C@H]2[C@@H]3CCC4=Cc5oncc5C[C@]4(C)[C@H]3CC[C@@]21C [DANAZOL] |
| Compound metabolized | CNC(=C[N+](=O)[O-])NCCSCc1csc(CN(C)C)n1 [NIZATIDINE] |

Test: as §1, with “Z-029” for “WLS-220”, “rat” for “human”, “ERS12561828” for “ERS12561769”
Conditions: 2 µM

| Bacterial Biotransformation | Compound |
| --- | --- |
| Compound NOT metabolized | C#C[C@]1(O)CC[C@H]2[C@@H]3CCC4=Cc5oncc5C[C@]4(C)[C@H]3CC[C@@]21C [DANAZOL] |
| Compound NOT metabolized | CNC(=C[N+](=O)[O-])NCCSCc1csc(CN(C)C)n1 [NIZATIDINE] |

Reference: ChEMBL document CHEMBL5724914, “Linking interpersonal differences in gut microbiota composition and drug biotransformation activity” (2024)
